Assay results reported in patent US20230025891A1, “COMPOSITION OF NATURAL EXTRACTS HAVING ANTIBACTERIAL OR BACTERIOSTATIC ACTIVITY ALSO FOR GRAM-NEGATIVE BACTERIA” (priority 2019, published 2023).

Assays:
[1] = Observed anti-bacterial efficacy depending on origin and isomer of usnic acid; conditions: natural versus synthetic dextrorotatory form
Text: Therefore, the solubility of usnic acid in water has always represented, and still represents, a great limit to its use. Furthermore, as regards the efficacy of usnic acid (or of a relative salt thereof) in terms of anti-bacterial activity, the inventors of the present invention observed that it depends both on the (natural or synthetic) origin of usnic acid and on the type of isomer (levorotatory(−) and/or dextrorotatory(+)) used.

[2] = Solubility; format: physicochemical; conditions: qualitative
Description: Racemic usnic acid (CAS No. 125-46-2) is the bioactive secondary metabolite of lichens. The large-scale use of said usnic acid has always been limited due to the low solubility in water (0.06 mg/cm^3, at room temperature of 20° C. and 1 atmosphere pressure).
As mentioned above, in such compound (ci) the lipophilic cavity of the cyclodextrins (host) hosts D-usnic acid, or salt thereof, or mixtures thereof (i) (guest), through a reversible non-covalent interaction. As a matter of fact, during the formation of the inclusion compound (ci), no covalent bond is formed, and no covalent bond is broken. The mechanism which—at least primarily—promotes the formation of the inclusion compound is the release of solvent molecules (preferably water molecules), a highly enthalpic exchange reaction, from the cyclodextrin cavity (ii). […] Furthermore, the inclusion compound (ci) renders D-usnic acid (or a salt thereof) compatible in an aqueous solution or an aqueous dispersion or an aqueous suspension. When said aqueous solution or dispersion or suspension, containing said inclusion compound (ci), is applied manually—by spraying or mechanically—to a surface such as that of a wall or floor of a hospital or kindergarten or school room, said acid or a salt thereof contained in said inclusion compound (ci) is capable of being placed, adhering and coating said surface uniformly and homogeneously as if it were a coating paint.
Said D-usnic acid as enantiomer (i), preferably as pure enantiomer, is of natural origin and could be associated, as chemical structure, with that of the corresponding synthesis compound having CAS No. 7562-61-0, i.e. the dextrorotatory enantiomer of said acid. The D-usnic acid as the pure enantiomer of the present invention is soluble in chloroform and ethyl acetate. […] Said D-usnic acid as a pure enantiomer has a melting point comprised from 192° C. to 204° C., a flash point of 223° C. and a boiling point of 605° C. Preferably, said D-usnic acid salt as pure enantiomer is a sodium salt. Said inclusion compound (ci) preferably comprises solid particles of D-usnic acid as pure enantiomer, or salt thereof, or mixtures thereof (i). More preferably, said solid particles have an average particle distribution comprised from 0.01 μm to 50 μm, preferably comprised from 0.1 μm to 30 μm, more preferably comprised from 0.15 μm to 20 μm, even more preferably comprised from 0.2 μm to 15 μm. Said average particle distribution was determined and measured using a laser diffraction method, according to the GB/T 19077-2016 standard, for example with a Malvern Mastersizer 3000 instrument. Said standard is meant in the version valid at the priority date of the present patent application. […]

CC(=O)c1c(O)c(C)c(O)c2c1OC1=CC(=O)C(C(C)=O)C(=O)C12C (single isomer, unassigned; (+)) [D-usnic acid, (+)-Usnic acid 2,6-Diacetyl-7,9-dihydroxy-8,9-dimethyldibenzo[b,d]furan-1,3(2H,9bH)-dione]
stability, efficacy and activity compared with synthetic origin [1]: more stable, effective and active than the dextrorotatory form (+) of synthetic origin
solubility in chloroform [2]: soluble
solubility in ethanol [2]: moderately soluble
solubility in ethyl acetate [2]: soluble
solubility in water [2]: insoluble
